{"source": "patent US9695155B2", "about": "“Herbicidal substituted pyrimidinyloxy benzene compounds” (E. I. DU PONT DE NEMOURS AND COMPANY, priority 2013, dated 2017)", "key": {"bluegrass": {"test_system": "bluegrass", "experiment": "Test D preemergence", "assay_type": "in vivo, Poa annua", "in_short": "(§1)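 Visual rating vs untreated controls, 0 = no effect, 100 = complete control, taken 7–21 d after treatment. Pre: silt loam soil. Post: potting medium, plants 2–18 cm, 1–4 leaf. Formulation: non-phytotoxic solvent mix + surfactant.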"}, "blackgrass": {"test_system": "blackgrass", "experiment": "Test D preemergence", "assay_type": "in vivo, Alopecurus myosuroides", "in_short": "as §1"}, "field violet": {"test_system": "field violet", "experiment": "Test D preemergence", "assay_type": "in vivo, Viola arvensis", "in_short": "as §1"}, "Italian ryegrass [1]": {"test_system": "Italian ryegrass", "experiment": "Test D preemergence", "assay_type": "in vivo, Lolium multiflorum", "in_short": "as §1"}, "kochia": {"test_system": "kochia", "experiment": "Test D preemergence", "assay_type": "in vivo, Kochia scoparia", "in_short": "as §1"}, "canarygrass": {"test_system": "canarygrass", "experiment": "Test D postemergence", "assay_type": "in vivo, Phalaris minor", "in_short": "as §1"}, "galium": {"test_system": "galium", "experiment": "Test D postemergence", "assay_type": "in vivo, Galium aparine", "in_short": "as §1"}, "deadnettle": {"test_system": "deadnettle", "experiment": "Test D postemergence", "assay_type": "in vivo, Lamium amplexicaule", "in_short": "as §1"}, "Italian ryegrass [2]": {"test_system": "Italian ryegrass", "experiment": "Test D postemergence", "assay_type": "in vivo, Lolium multiflorum", "in_short": "as §1"}, "oilseed rape": {"test_system": "oilseed rape", "experiment": "Test D postemergence", "assay_type": "in vivo, Brassica napus", "in_short": "as §1"}, "chamomile": {"test_system": "chamomile", "experiment": "Test D postemergence", "assay_type": "in vivo, Matricaria inodora", "in_short": "as §1"}, "wild buckwheat": {"test_system": "wild buckwheat", "experiment": "Test D postemergence", "assay_type": "in vivo, Polygonum convolvulus", "in_short": "as §1"}, "[3]": {"conditions": "16 g ai/ha, scale 0 (no effect) to 100 (complete control)"}, "[4]": {"conditions": "31 g ai/ha, scale 0 to 100 (0 no effect, 100 complete control)"}, "[5]": {"conditions": "62 g ai/ha, scale 0 to 100 (0 no effect, 100 complete control)"}, "[6]": {"conditions": "125 g ai/ha, scale 0 to 100 (0 no effect, 100 complete control)"}, "[7]": {"conditions": "250 g ai/ha, scale 0 to 100 (0 no effect, 100 complete control)"}}, "data": [{"smiles": "Clc1cnc(Oc2ccccc2-n2cc(Cl)cn2)nc1", "note": "[Compound 3]", "values": [{"measurement": "Plant response rating, Bluegrass", "setting": "bluegrass; [3]", "value": 0}, {"measurement": "Plant response rating, Bluegrass", "setting": "bluegrass; 31 g ai/ha, scale 0-100", "value": 0}, {"measurement": "Plant response rating, Bluegrass", "setting": "bluegrass; 62 g ai/ha, scale 0-100", "value": 0}, {"measurement": "Plant response rating, Bluegrass", "setting": "bluegrass; 125 g ai/ha, scale 0-100", "value": 20}, {"measurement": "Plant response rating, Bluegrass", "setting": "bluegrass; 250 g ai/ha, scale 0-100", "value": 40}, {"measurement": "Plant response rating, Blackgrass", "setting": "blackgrass; [3]", "value": 0}, {"measurement": "Plant response rating, Blackgrass", "setting": "blackgrass; 31 g ai/ha, scale 0-100", "value": 0}, {"measurement": "Plant response rating, Blackgrass", "setting": "blackgrass; 62 g ai/ha, scale 0-100", "value": 0}, {"measurement": "Plant response rating, Blackgrass", "setting": "blackgrass; 125 g ai/ha, scale 0-100", "value": 0}, {"measurement": "Plant response rating, Blackgrass", "setting": "blackgrass; 250 g ai/ha, scale 0-100", "value": 0}, {"measurement": "Plant response rating, Field Violet", "setting": "field violet; [3]", "value": 40}, {"measurement": "Plant response rating, Field Violet", "setting": "field violet; 31 g ai/ha, scale 0-100", "value": 80}, {"measurement": "Plant response rating, Field Violet", "setting": "field violet; 62 g ai/ha, scale 0-100", "value": 80}, {"measurement": "Plant response rating, Field Violet", "setting": "field violet; 125 g ai/ha, scale 0-100", "value": 85}, {"measurement": "Plant response rating, Field Violet", "setting": "field violet; 250 g ai/ha, scale 0-100", "value": 85}, {"measurement": "Plant response rating, Ryegrass, Italian", "setting": "Italian ryegrass [1]; [3]", "value": 0}, {"measurement": "Plant response rating, Ryegrass, Italian", "setting": "Italian ryegrass [1]; 31 g ai/ha, scale 0 (no effect) to 100 (complete control)", "value": 0}, {"measurement": "Plant response rating, Ryegrass, Italian", "setting": "Italian ryegrass [1]; 62 g ai/ha, scale 0-100", "value": 0}, {"measurement": "Plant response rating, Ryegrass, Italian", "setting": "Italian ryegrass [1]; 125 g ai/ha, scale 0-100", "value": 0}, {"measurement": "Plant response rating, Ryegrass, Italian", "setting": "Italian ryegrass [1]; 250 g ai/ha, scale 0-100", "value": 0}, {"measurement": "Plant response rating, Kochia", "setting": "kochia; [3]", "value": 0}, {"measurement": "Plant response rating, Kochia", "setting": "kochia; 31 g ai/ha, scale 0-100", "value": 30}, {"measurement": "Plant response rating, Kochia", "setting": "kochia; 62 g ai/ha, scale 0-100", "value": 30}, {"measurement": "Plant response rating, Kochia", "setting": "kochia; 125 g ai/ha, scale 0-100", "value": 30}, {"measurement": "Plant response rating, Kochia", "setting": "kochia; 250 g ai/ha, scale 0-100", "value": 50}, {"measurement": "Plant response rating, Canarygrass", "setting": "canarygrass; 16 g ai/ha, scale 0-100", "value": 30}, {"measurement": "Plant response rating, Canarygrass", "setting": "canarygrass; [4]", "value": 0}, {"measurement": "Plant response rating, Canarygrass", "setting": "canarygrass; [5]", "value": 0}, {"measurement": "Plant response rating, Canarygrass", "setting": "canarygrass; [6]", "value": 0}, {"measurement": "Plant response rating, Canarygrass", "setting": "canarygrass; [7]", "value": 10}, {"measurement": "Plant response rating, Galium", "setting": "galium; 16 g ai/ha, scale 0-100", "value": 40}, {"measurement": "Plant response rating, Galium", "setting": "galium; [4]", "value": 30}, {"measurement": "Plant response rating, Galium", "setting": "galium; [5]", "value": 40}, {"measurement": "Plant response rating, Galium", "setting": "galium; [6]", "value": 45}, {"measurement": "Plant response rating, Galium", "setting": "galium; [7]", "value": 75}, {"measurement": "Plant response rating, Deadnettle", "setting": "deadnettle; 16 g ai/ha, scale 0-100", "value": 10}, {"measurement": "Plant response rating, Deadnettle", "setting": "deadnettle; [4]", "value": 10}, {"measurement": "Plant response rating, Deadnettle", "setting": "deadnettle; [5]", "value": 10}, {"measurement": "Plant response rating, Deadnettle", "setting": "deadnettle; [6]", "value": 10}, {"measurement": "Plant response rating, Deadnettle", "setting": "deadnettle; [7]", "value": 20}, {"measurement": "Plant response rating, Ryegrass, Italian", "setting": "Italian ryegrass [2]; 16 g ai/ha, scale 0-100", "value": 60}, {"measurement": "Plant response rating, Ryegrass, Italian", "setting": "Italian ryegrass [2]; [4]", "value": 0}, {"measurement": "Plant response rating, Ryegrass, Italian", "setting": "Italian ryegrass [2]; [5]", "value": 0}, {"measurement": "Plant response rating, Ryegrass, Italian", "setting": "Italian ryegrass [2]; [6]", "value": 0}, {"measurement": "Plant response rating, Ryegrass, Italian", "setting": "Italian ryegrass [2]; [7]", "value": 0}, {"measurement": "Plant response rating, Oilseed Rape", "setting": "oilseed rape; 16 g ai/ha, scale 0-100", "value": 90}, {"measurement": "Plant response rating, Oilseed Rape", "setting": "oilseed rape; [4]", "value": 80}, {"measurement": "Plant response rating, Oilseed Rape", "setting": "oilseed rape; [5]", "value": 80}, {"measurement": "Plant response rating, Oilseed Rape", "setting": "oilseed rape; [6]", "value": 90}, {"measurement": "Plant response rating, Oilseed Rape", "setting": "oilseed rape; [7]", "value": 95}, {"measurement": "Plant response rating, Chamomile", "setting": "chamomile; 16 g ai/ha, scale 0-100", "value": 0}, {"measurement": "Plant response rating, Chamomile", "setting": "chamomile; [4]", "value": 0}, {"measurement": "Plant response rating, Chamomile", "setting": "chamomile; [5]", "value": 0}, {"measurement": "Plant response rating, Chamomile", "setting": "chamomile; [6]", "value": 0}, {"measurement": "Plant response rating, Chamomile", "setting": "chamomile; [7]", "value": 0}, {"measurement": "Plant response rating, Buckwheat, Wild", "setting": "wild buckwheat; Postemergence, 62 g ai/ha, scale 0 to 100 (0 no effect, 100 complete control)", "value": 50}, {"measurement": "Plant response rating, Buckwheat, Wild", "setting": "wild buckwheat; Postemergence, 31 g ai/ha, scale 0 to 100 (0 no effect, 100 complete control)", "value": 10}, {"measurement": "Plant response rating, Buckwheat, Wild", "setting": "wild buckwheat; Postemergence, 125 g ai/ha, scale 0 to 100 (0 no effect, 100 complete control)", "value": 60}, {"measurement": "Plant response rating, Buckwheat, Wild", "setting": "wild buckwheat; Postemergence, 250 g ai/ha, scale 0 to 100 (0 no effect, 100 complete control)", "value": 80}, {"measurement": "Plant response rating, Buckwheat, Wild", "setting": "wild buckwheat; postemergence, 16 g ai/ha, scale 0 to 100, 0 no effect, 100 complete control", "value": 50}]}]}
